From patent publication US12617777B2, “GPR84 antagonists and uses thereof” (Liminal BioSciences Limited, priority 2021, dated 2026)

Target: T1, human GPR84 receptor (Homo sapiens, UniProt Q9NQS5)
T1 construct: host or cells: HEK293, transient transfection
Experiment: Gαi biosensor BRET assay in HEK293 cells (antagonism of ZQ-16)
Format: cell-based
Details: for inhibition at 10 µM: HEK293, single concentration 10 μM (designated F); for inhibition at 25 µM: HEK293, single concentration 25 μM (designated I); for inhibition at 2 µM: HEK293, single concentration 2 μM (designated A); for IC50: HEK293 cells, antagonism of 200 nmol/L ZQ-16
In short: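 Antagonist mode: test compound 5 min at 37° C, followed by ZQ-16 agonist (200 nmol/L, 5 min, room temperature), in HEK293 cells transfected with GPR84 plus Rluc8-tagged Gαi2, GFP10-Gγ2 and Gβ1. Readout as GFP10/Rluc8 emission ratio after 5 μmol/L coelenterazine 400A, net of Rluc8-only and vehicle signal.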

T1 sequence (Q9NQS5 whole entry): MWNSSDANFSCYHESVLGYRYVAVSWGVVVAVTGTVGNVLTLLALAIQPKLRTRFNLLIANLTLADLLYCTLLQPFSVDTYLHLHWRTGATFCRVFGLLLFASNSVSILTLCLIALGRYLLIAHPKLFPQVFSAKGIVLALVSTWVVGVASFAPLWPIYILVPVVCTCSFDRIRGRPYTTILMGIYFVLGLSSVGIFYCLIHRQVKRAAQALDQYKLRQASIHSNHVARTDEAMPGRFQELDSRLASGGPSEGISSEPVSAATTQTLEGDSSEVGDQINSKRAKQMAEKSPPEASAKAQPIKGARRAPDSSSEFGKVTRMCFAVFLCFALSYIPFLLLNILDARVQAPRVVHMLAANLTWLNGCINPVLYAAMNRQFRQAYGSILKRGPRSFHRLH

Structure (SMILES)	inhibition at 10 µM [%]	other results
CC(c1cn(CC2CCCCO2)nn1)c1cccc(C#CC2CC2)n1 (stereo not drawn) [Compound I-416]	25 to 50	
COC(=O)NCC#Cc1ccc(-c2cn(CC3CCCCO3)nn2)c(C)c1 (stereo not drawn) [Compound I-607]	25 to 50	
O=c1oc(CC2COCCO2)nn1-c1ccc(C#CC2CC2)cc1 (stereo not drawn) [Compound I-10, 5-((1,4-dioxan-2-yl)methyl)-3-(4-(cyclopropylethynyl)phenyl)-1,3,4-oxadiazol-2(3H)-one]		inhibition at 25 µM: ≤ 25%
Cc1c(-c2ccc(C#CC3CC3)cc2)nnn1CC1CCCCS1(=O)=O (stereo not drawn) [Compound I-574]	≤ 25	
Cc1cc(N2CCN(Cc3ccccn3)CC2)ccc1-c1cncn1CC1OCC(C)(C)CO1 [Compound I-683]	≤ 25	
Cc1cc(Cn2cc(-c3ccc(C#CC4CC4)cc3C)nn2)on1 [Compound I-557]		inhibition at 2 µM: ≤ 25%
CN(c1cccc(C#N)c1)c1cn(CC2OCC(C)(C)CO2)nn1 [Compound I-802]	> 75	
CCc1cc(C#CCNC(=O)OC)ccc1-c1cn(CC2CCCCO2)nn1 (stereo not drawn) [Compound I-586]	> 75	IC50: 1 to 3 µM
C(#CC1CC1)c1ccc(-c2cn(CCOCC3CCCCO3)nn2)cc1 (stereo not drawn) [Compound I-83]		inhibition at 25 µM: 25 to 50%
Cc1ccc(C#CC2CC2)cc1C1(c2cn(CC3CCCCO3)nn2)CC1 (stereo not drawn) [Compound I-679, 4-(1-(5-(cyclopropylethynyl)-2-methylphenyl)cyclopropyl)-1-((tetrahydro-2H-pyran-2-yl)methyl)-1H-1,2,3-triazole]	> 75	
CC(C)C#Cc1cnc(-c2cn(CC3OCC4(CC4)CO3)nn2)c(OC2CC2)c1 [Compound I-861]	> 75	
CC1(CO)CN(c2cnc(-c3cn(CC4OCC5(CCC5)O4)nn3)c(OCC(F)(F)F)c2)C1 (stereo not drawn) [Compound I-816]	> 75	
Cc1cc(N2CCN(CC3CC4CCN3CC4)CC2)ccc1-c1cn(CC2CCCCO2)nn1 (stereo not drawn) [Compound I-657]	≤ 25	
Cc1ccc(-c2ccc(-c3cn(C[C@H]4CCCCO4)nn3)nc2)cn1 [Compound I-32]	≤ 25	
Cc1cc(C#CC2CC(F)(F)C2)ccc1-c1cn(CC2OCC(C)(C)CO2)nn1 [Compound I-662]	> 75	IC50: > 3 µM
CC(C)Oc1cc(N2CC(C)(CO)C2)ccc1-c1cn(CC2CC(C)(C)O2)nn1 (stereo not drawn) [Compound I-677]		inhibition at 2 µM: > 75%; IC50: ≤ 0.3 µM
Cc1cc(N2CC(C)(C)C2)ccc1-c1cn(CC2OCC(F)(F)CO2)nn1 [Compound I-687]	50 to 75	
C(#CC1CC1)c1ccc(-c2cn(CC3CCOCC3)nn2)cc1 [Compound I-40]		inhibition at 25 µM: 25 to 50%
C(#CC1CC1)c1ccc(-c2cn(CC3CCCCO3)nn2)c(N2CCOCC2)c1 (stereo not drawn) [Compound I-198]	25 to 50	
Cc1cc(N2CCN([C@@H](C)c3ccccn3)CC2)ccc1-c1cn(CC2OCC(C)(C)CO2)nn1 [Compound I-716]	> 75	IC50: 0.3 to 1 µM
Cc1cc(C#CC2CC2)ccc1-c1cn(Cc2ncco2)nn1 [Compound I-143]	≤ 25	
Cc1cc(C#CC2CC2)ccc1-c1cn(CC2CCC(C)(C)O2)nn1 (stereo not drawn) [Compound I-164]	> 75	IC50: 1 to 3 µM
Cc1cc(N2CC(C)(CO)C2)ccc1-c1cn(CC2OCC(C)(C)CO2)nn1 [Compound I-614]	50 to 75	
c1ccc(COc2ccc3c(c2)CCc2cn(CC4CCCCO4)nc2-3)cc1 (single isomer, unassigned) [Compound I-330]	≤ 25	IC50: 0.3 to 1 µM
Cc1cc(C#CC2CC2)ccc1-c1cnn(CC2CCCCO2)c1 (stereo not drawn) [Compound I-324]		inhibition at 25 µM: ≤ 25%
Cc1cc(N2CC(CF)C2)ccc1-c1cn(CC2CCCCO2)nn1 (stereo not drawn) [Compound I-544]	25 to 50	

Structure (SMILES)	inhibition at 10 µM [%]	other results
Cc1cc(C#CC2CC2)ccc1-c1cn(Cc2ccn(C)n2)nn1 [Compound I-543]		inhibition at 2 µM: ≤ 25%
CCn1cc(-c2ccc(-c3cn(CC4CCCCO4)nn3)c(C)c2)cn1 (stereo not drawn) [Compound I-194]	≤ 25	
C(#CC1CC1)c1csc(-c2cn(CC3CCCCO3)nn2)c1 (stereo not drawn) [Compound I-242]	≤ 25	
Cc1cc(C#CC2CC2)ccc1-c1cn(CC2OCC(c3ccccc3)CO2)nn1 (stereo not drawn) [Compound I-704]	≤ 25	
COC(c1cn(CC2Oc3ccccc3O2)nn1)c1cc(C#CC2CC2)ccc1C (stereo not drawn) [Compound I-605]	> 75	IC50: 0.3 to 1 µM
CC(=O)N1CCCCC1Cn1cc(-c2ccc(C#CC3CC3)cc2C)nn1 (stereo not drawn) [Compound I-139]	≤ 25	
Cc1cc(N2CC3(COC3)C2)ccc1-c1cn(CC2CCCCO2)nn1 (stereo not drawn) [Compound I-113]	25 to 50	
CC(C)Oc1cc(C#CC2CC2)cnc1-c1cn(C[C@H]2CCCCO2)nn1 [Compound I-659]	> 75	IC50: ≤ 0.3 µM
CC1(C)COC(Cn2cc(-c3ncc(C#CC4CC4)cc3C(F)F)nn2)OC1 [Compound I-736]	≤ 25	
C(#CC1CC1)c1ccc(-n2cc(CC3CCCO3)nn2)cc1 (stereo not drawn) [Compound I-295]		inhibition at 25 µM: ≤ 25%
COc1ccc(Cl)c(N(C)c2cn(CC3OCC(C)(C)CO3)nn2)c1 [Compound I-813]	> 75	
Cc1c(-c2ccc(OCc3ccccc3)cc2)nnn1CC1CCCCO1 (stereo not drawn) [Compound I-46]		inhibition at 5 µM (HEK293, single concentration 5 μM (designated D)): ≤ 25%
CC(=O)N1CCN(c2ccc(-c3cn(CC4CCCCO4)nn3)c(C)c2)CC1 (stereo not drawn) [Compound I-112]	≤ 25	
COC(c1cn(CC2CCCCO2)nn1)c1cc(C#CC2CC2)c(F)cc1C (stereo not drawn) [Compound I-688]	> 75	IC50: 0.3 to 1 µM
CC1(C)COC(Cn2cc(Oc3ccccc3)nn2)OC1 [Compound I-743, 1-((5,5-dimethyl-1,3-dioxan-2-yl)methyl)-4-phenoxy-1H-1,2,3-triazole]	≤ 25	
Cc1cc(N2CC(C)(CO)C2)cnc1-c1cn(CCc2ncccn2)nn1 [Compound I-695]	≤ 25	
COCCn1cc(-c2ccc(C#CCNc3ccccc3)cc2C)nn1 [Compound I-161]	≤ 25	
CC(=O)N(c1cn(CC2OCC(C)(C)CO2)nn1)c1cc(C#CC2CC2)ccc1C [Compound I-792, N-(5-(cyclopropylethynyl)-2-methylphenyl)-N-(1-((5,5-dimethyl-1,3-dioxan-2-yl)methyl)-1H-1,2,3-triazol-4-yl)acetamide]		inhibition at 2 µM: > 75%; IC50: 0.3 to 1 µM
Cc1cc(N2CCCC2)ccc1-c1cn(CC2CCCCO2)nn1 (stereo not drawn) [Compound I-472]	25 to 50	
CC1(C)COC(Cn2cc(-c3ccc(N4CC(C)(NCc5ccccn5)C4)cc3CC(F)(F)F)nn2)OC1 [Compound I-745]		inhibition at 2 µM: > 75%; IC50: 0.3 to 1 µM
Cc1cc(N2CCCC23CN(C)C3)ccc1-c1cn(CC2CCCCO2)nn1 (stereo not drawn) [Compound I-151]	≤ 25	
Cc1cc(N2CCC[C@@H](N(C)Cc3ccccc3)C2)ccc1-c1cn(C[C@H]2CCCCO2)nn1 (relative stereo) [Compound I-238]	50 to 75	IC50: 1 to 3 µM
CN(C)c1cc(N2CC(C)(C(=O)O)C2)ccc1-c1cn(CC2OCC(C)(C)CO2)nn1 [Compound I-696]	25 to 50	
Cc1ccc(N2CCN(Cc3ccccn3)CC2)cc1-c1cn(CC2CCCCO2)nn1 (stereo not drawn) [Compound I-564]	≤ 25	
Cc1cc(C#CC2CC2)ccc1-c1ccn(CC2CCCCO2)n1 (stereo not drawn) [Compound I-325]	≤ 25	
